The supplement of paper PMC10883282
± gives the standard deviation of the averaged measurements.

System: SK-ES-1
Assay: relative viability vs DMSO control (72 h) (fraction); higher = more viable cells
Method in brief: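 ATPLite readings, expressed as percent growth and averaged over up to triplicate wells, provided relative viability. Before reading, sarcoma cell lines seeded in 384-well plates to reach 80–90% confluence received 2.5 µl of serially diluted compound after 24 h, from source plates of 10 mM to 0.0002 mM. Plates were held 72 h at 37 °C, 5% CO2, with 0.1% DMSO as vehicle and a 5 µM positive control. The data were rescaled to 1 for full and 0 for none.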

Row | Structure (SMILES) | relative viability (0.00017 µM) | relative viability (0.00051 µM) | relative viability (0.00152 µM) | relative viability (0.00457 µM) | relative viability (0.01372 µM) | relative viability (0.04115 µM) | relative viability (0.1235 µM) | relative viability (0.3704 µM) | relative viability (1.111 µM) | relative viability (3.333 µM) | relative viability (10 µM)
1 | COc1cc2/c(=N/c3ccc(Br)cc3F)nc[nH]c2cc1OCC1CCN(C)CC1 [Vandetanib] | 1 ± 0.03 | 0.992 ± 0.024 | 1.02 ± 0.037 | 1.033 ± 0.0099 | 1.06 ± 0.035 | 0.989 ± 0.051 | 1.008 ± 0.0093 | 0.917 ± 0.033 | 0.762 ± 0.032 | 0.389 ± 0.0099 | 0.0169 ± 0.0022
2 | CCc1cc2c(cc1N1CCC(N3CCOCC3)CC1)C(C)(C)c1[nH]c3cc(C#N)ccc3c1C2=O [Alectinib] | 1 ± 0.048 | 1.04 ± 0.023 | 1.07 ± 0.025 | 1.07 ± 0.025 | 1.02 ± 0.031 | 1.03 ± 0.02 | 1.06 ± 0.084 | 1.01 ± 0.068 | 1.08 ± 0.056 | 1.04 ± 0.035 | 0.915 ± 0.068
3 | Cc1nc(-c2cn3c(n2)-c2ccc(-c4cnn(C(C)(C)C(N)=O)c4)cc2OCC3)n(C(C)C)n1 [Taselisib] | 0.973 ± 0.069 | 0.984 ± 0.066 | 0.985 ± 0.013 | 0.994 ± 0.028 | 0.899 ± 0.074 | 0.761 ± 0.038 | 0.541 ± 0.045 | 0.41 ± 0.012 | 0.348 ± 0.017 | 0.288 ± 0.012 | 0.22127 ± 0.00015
4 | O=C(Cc1ccc(-c2ccc(OCCN3CCOCC3)cc2)cn1)NCc1ccccc1 [KX2-391] | 1.07 ± 0.02 | 1.11 ± 0.035 | 1.05 ± 0.059 | 1.07 ± 0.026 | 1.05 ± 0.032 | 0.235 ± 0.039 | 0.024 ± 0.0039 | 0.0226 ± 0.00042 | 0.0192 ± 0.0041 | 0.0176 ± 0.0029 | 0.0223 ± 0.0021
